Molecules are shown by their SMILES. ≈ marks a conversion by molar mass, not a printed value. Calls of active or inactive are those of the source.

Test [1] has as its system Staphylococcus aureus. In words: Antibacterial activity against Staphylococcus aureus ATCC 6538P assessed as inhibition of planktonic growth at sub-MIC measured up to 25 hrs. Type of test: functional, organism-based.
The subject of test [2] is Staphylococcus epidermidis. In words: Antibacterial activity against Staphylococcus epidermidis ATCC 35984 assessed as inhibition of biofilm formation after 24 hrs by crystal violet staining. Type of test: functional, organism-based. Conditions: ATCC 35984, 24 h.
Test [3] concerns Staphylococcus aureus. The test can be described thus: Antibacterial activity against Staphylococcus aureus ATCC 6538P assessed as inhibition of biofilm formation after 24 hrs by crystal violet staining. Type of test: functional, organism-based.
In test [4] the test system is Staphylococcus epidermidis. The test can be described thus: Antibacterial activity against Staphylococcus epidermidis ATCC 35984 incubated in drug free medium for 18 hrs after MIC determination by broth microdilution method. Format: functional. The conditions noted are these: ATCC 35984, 18 h. On the technique in general: Dilution methods test growth across graded concentrations, often in twofold steps.

The test system of test [5] is Staphylococcus epidermidis. The test can be described thus: Antibacterial activity against Staphylococcus epidermidis ATCC 35984 by broth microdilution method. Type of test: functional.
Test [6] deals with Staphylococcus aureus. The test can be described thus: Antibacterial activity against Staphylococcus aureus ATCC 6538P by broth microdilution method. Format: functional.
Test [7] concerns Staphylococcus aureus. In words: Antibacterial activity against Staphylococcus aureus ATCC 6538P incubated in drug free medium for 18 hrs after MIC determination by broth microdilution method. Format: functional.
For test [8], the system named is Staphylococcus epidermidis. In words: Antibacterial activity against Staphylococcus epidermidis ATCC 35984 assessed as inhibition of planktonic growth at sub-MIC measured up to 25 hrs. Type of test: functional, organism-based.
Test [9] deals with Staphylococcus aureus. In words: Antibacterial activity against Staphylococcus aureus ATCC 6538P assessed as change in bacterial surface protein level at sub-MIC by SDS-PAGE analysis. Format: functional, organism-based.
Test [10] relates to Staphylococcus aureus. The test can be described thus: Antibacterial activity against Staphylococcus aureus ATCC 6538P assessed as change in bacterial surface protein level at sub-MIC by zymographic analysis. Format: functional, organism-based.
In test [11] the test system is Staphylococcus epidermidis. In words: Antibacterial activity against Staphylococcus epidermidis ATCC 35984 assessed as modification of bacterial surface protein pattern at 14 uM by zymographic analysis. Format: functional, organism-based.
Test [12] concerns Staphylococcus epidermidis. The test can be described thus: Antibacterial activity against Staphylococcus epidermidis ATCC 35984 assessed as modification of bacterial surface protein pattern at 4 uM by zymographic analysis. Format: functional, organism-based.
In test [13] the test system is Staphylococcus epidermidis. The test can be described thus: Antibacterial activity against Staphylococcus epidermidis ATCC 35984 assessed as disappearance of bacterial surface protein level at sub-MIC by SDS-PAGE analysis. Type of test: functional, organism-based.
The test system of test [14] is Staphylococcus epidermidis. The test can be described thus: Antibacterial activity against Staphylococcus epidermidis ATCC 35984 assessed as disappearance of bacterial surface proteins level at sub-MIC by zymographic analysis. Type of test: functional, organism-based.
Test [15] relates to Staphylococcus epidermidis. In words: Antibacterial activity against Staphylococcus epidermidis ATCC 35984 assessed as modification of bacterial surface protein pattern at 8 uM by zymographic analysis. Format: functional, organism-based.
Test [16] is described as follows: Ratio of MIC for Staphylococcus aureus ATCC 6538P to MIC for Staphylococcus epidermidis ATCC 35984. Format: functional.

As a reminder, the EC50 is the concentration giving half of the maximal effect. The MBC is the lowest tested concentration that kills the bacteria rather than only halting them. Higher therefore signals less potent killing. The MIC is the smallest concentration in the dilution series that meets the test's criterion for growth inhibition. Lower therefore signals inhibition by little substance. For the compound `Oc1ccc(-c2cc3ccccc3o2)c(O)c1`, the outcome (with Staphylococcus aureus [1]; in test [8]; with Staphylococcus aureus [9]; in the test with Staphylococcus aureus [10]; in [11]) was inactive. Besides, the EC50 is 23.5 µM in test [2] and 8.2 µM in the test on Staphylococcus aureus [3]. Further, the MBC (in test [4]; against Staphylococcus aureus [7]) was 55.3 µM (≈ 12.5 µg/mL) throughout. In addition, the MIC (in test [5]; with Staphylococcus aureus [6]) was 55.3 µM (≈ 12.5 µg/mL) in each case.

On to `COc1ccc2c(c[n+](C)c3c4cc5c(cc4ccc23)OCO5)c1OC` [CHELERYTHRINE CHLORIDE], for which the outcome (in the test on Staphylococcus aureus [1]; in [8]; in the test with Staphylococcus aureus [9]; in the test on Staphylococcus aureus [10]; in [12]) was inactive. The values for the EC50 (in test [2]; with Staphylococcus aureus [3]) were 8.6 µM and 15.2 µM, respectively. For the same compound, the MBC (in test [4]; in the test on Staphylococcus aureus [7]) was > 260 µM each time. Further, the MIC (in test [5]; with Staphylococcus aureus [6]) was 16.3 µM in each case.

Take `Oc1cc(O)c2c(c1)O[C@@]1(c3ccc(O)c(O)c3)Oc3cc(O)c4c(c3[C@@H]2[C@H]1O)O[C@H](c1ccc(O)c(O)c1)[C@H](O)C4` [PROANTHOCYANIDIN A2]: the outcome (with Staphylococcus aureus [1]; in [8]; in the test with Staphylococcus aureus [9]; with Staphylococcus aureus [10]) was inactive. The EC50 in [2] turned out to be 7.6 µM; in the test with Staphylococcus aureus [3], 6.9 µM. Besides, the MBC (in [4]; in the test with Staphylococcus aureus [7]) was > 169 µM throughout. The MIC (in test [5]; against Staphylococcus aureus [6]) was > 169 µM throughout. For the same compound, the result in test [13] and in test [14] was Active.

As for `C[n+]1cc2c3c(ccc2c2ccc4cc5c(cc4c21)OCO5)OCO3` [SANGUINARIUM], the result (with Staphylococcus aureus [1]; in test [8]; in the test on Staphylococcus aureus [9]; in the test with Staphylococcus aureus [10]; in [15]) was inactive. For the same compound, the figures for the 50% effective concentration (EC50) (in test [2]; in the test with Staphylococcus aureus [3]) were 4.4 µM and 24.5 µM, respectively. For the same compound, the MBC (in test [4]; in the test on Staphylococcus aureus [7]) was 34 µM each time. Moreover, the MIC was 8.5 µM in [5] and 34 µM against Staphylococcus aureus [6]. Further, the result in test [13] was Active. In test [16], the Ratio stood at 4.

These data come from ChEMBL document CHEMBL1949602, “Bacterial biofilm formation inhibitory activity revealed for plant derived natural compounds” (Bioorg Med Chem, 2012).
